Test results as given in patent US20170368134A1, “PROTEASOME INHIBITORS FOR TREATING A DISORDER RELATED TO AN ACCUMULATION OF NON-DEGRADED ABNORMAL PROTEIN OR A CANCER” (UNIVERSITÉ D'AIX-MARSEILLE, priority 2015, published 2017).
Peptide text beside a SMILES is read from it. * marks the point of attachment. Cbz = O=C(OCc1ccccc1)*

Key:
LC3B-II = assay: Western blot of LC3B-II (autophagy level) in HGPS fibroblasts; assay type: cell-based, human; conditions: HGPS fibroblasts following MG132 treatment
Procedure: Total fibroblast proteins were extracted in 200 μL of NP40 Cell Lysis buffer (Invitrogen, Carlsbad, Calif.) containing Protease and Phosphatase Inhibitor Cocktail (Thermo Scientific). Alternatively, cells were lysed with urea (8 M urea, 5 mM dithiothreitol, 150 mM NaCl, 50 mM Tris-Cl pH 7.5, protease and phosphatase Inhibitor Cocktail (Thermo Scientific)). Cells were sonicated twice (30 sec each), incubated at 4° C. for 30 minutes and then centrifuged at 10,000 g for 10 minutes. Protein concentration was evaluated with the bicinchoninic acid technique (Pierce BCA Protein Assay Kit), absorbance at 562 nm is measured using nanodrop 1000 (Thermo Fisher Scientific Inc.) Equal amounts of proteins (40 μg) were loaded onto 10% Tis-Glycine gel (Criterion™ XT precast gel) using XT Tricine running Buffer (Biorad, USA). After electrophoresis, gels were electro transferred onto nitrocellulose membranes or Immobilon-FL polyvinylidene fluoride membranes (Millipore), blocked in Odyssey Blocking Buffer diluted 1:1 in PBS for 1 hour at room temperature, and incubated overnight at 4° C. or 2 hours at room temperature with various primary antibodies. […]

progerin mRNA = assay: qRT-PCR of progerin transcripts in HGPS fibroblasts; assay type: cell-based, human; conditions: 10 μM MG132, time dependent, relative to DMSO
Procedure: (§1) Total RNA was isolated using the RNeasy plus extraction kit (Qiagen, Valencia, Calif.). 1 μg of RNA was reverse transcribed using the High Capacity cDNA Reverse Transcription Kit (Applied Biosystems). Real time PCR amplification was carried out with the TaqMan® Gene Expression Master Mix (Applied Biosystems) on a LightCycler 480 (Roche, Germany) using pre-designed primers for GAPDH (Hs00266705_g1), Progerin (F: […] (SEQ ID NO:3) R: […] (SEQ ID NO:4) and probe: […] (SEQ ID NO:5)), Lamin A (F: […] (SEQ ID NO:6) R: […] (SEQ ID NO:7) and probe: […] (SEQ ID NO:8)) and lamin C (F: […] (SEQ ID NO:9) R: […] (SEQ ID NO:10) and probe: […] (SEQ ID NO:11)) (Applied Biosystems) using the program: UNG incubation at 50° C. for 2 minutes, initial denaturation at 95° C. for 10 minutes, 40 cycles of amplification: denaturation at 95° C. for 15 seconds and annealing at 60° C. for 1 minute. All PCR reactions were performed in triplicate. Threshold cycle (Ct) values were used to calculate relative mRNA expression by the 2-ΔΔ^T relative quantification method with normalization to GAPDH expression.

SRSF-1 = assay: Western blot of SRSF-1 in HGPS fibroblasts; assay type: cell-based, human; conditions: 48 h treatment of HGPS fibroblasts with MG132 (10 μM)
Procedure: Total fibroblast proteins were extracted in 200 μL of NP40 Cell Lysis buffer (Invitrogen, Carlsbad, Calif.) containing Protease and Phosphatase Inhibitor Cocktail (Thermo Scientific). Alternatively, cells were lysed with urea (8 M urea, 5 mM dithiothreitol, 150 mM NaCl, 50 mM Tris-Cl pH 7.5, protease and phosphatase Inhibitor Cocktail (Thermo Scientific)). Cells were sonicated twice (30 sec each), incubated at 4° C. for 30 minutes and then centrifuged at 10,000 g for 10 minutes. Protein concentration was evaluated with the bicinchoninic acid technique (Pierce BCA Protein Assay Kit), absorbance at 562 nm is measured using nanodrop 1000 (Thermo Fisher Scientific Inc.) Equal amounts of proteins (40 μg) were loaded onto 10% Tis-Glycine gel (Criterion™ XT precast gel) using XT Tricine running Buffer (Biorad, USA). After electrophoresis, gels were electro transferred onto nitrocellulose membranes or Immobilon-FL polyvinylidene fluoride membranes (Millipore), blocked in Odyssey Blocking Buffer diluted 1:1 in PBS for 1 hour at room temperature, and incubated overnight at 4° C. or 2 hours at room temperature with various primary antibodies. Blots were washed with TBS-T buffer [20 mM tris (pH 7.4), 150 mM NaCl, and 0.05% Tween 20] and incubated with 1:10,000 IR-Dye 800-conjugated secondary donkey anti-goat or IR-Dye 700-conjugated secondary anti-mouse antibodies (LI-COR Biosciences) in Odyssey blocking buffer (LI-COR Biosciences). For IR-Dye 800 and IR-Dye 700 detection, an Odyssey Infrared Imaging System (LI-COR Biosciences) was used. GAPDH, α-tubulin or β-actin were used as a total cellular protein loading control.

lamin A mRNA = assay: qRT-PCR of lamin A transcripts in HGPS cells; assay type: cell-based, human; conditions: 10 μM MG132 time-course
Procedure: as §1

lamin C mRNA = assay: qRT-PCR of lamin C transcripts in HGPS cells; assay type: cell-based, human; conditions: 10 μM MG132 time-course
Procedure: as §1

HGPS cell lines = assay: Quantitation of abnormal nuclear morphology; assay type: cell-based, human; conditions: 10 μM MG132, 48 h
Procedure: The percentage of normal nuclei (nuclei with a smooth oval shape) and abnormal nuclei (nuclei with blebs, irregular shape, or multiple folds) was calculated by manual blind counting. A representative image and the mean values of 3 different experiments are shown. *P<0.05.
Fibroblasts from three HGPS patients (AG01972, AG11498, 5968) and two normal individuals (8471, 8498) were cultured with DMEM medium containing 10 μM MG132, or the same volume of vehicle (DMSO, 0.025% v/v) for 48 h. Cells stained for lamin A/C or DAPI were examined by fluorescence microscopy with an Axioplan 2 imaging microscope (Carl Zeiss). For quantitation of abnormal nuclear morphology, the percentage of normal nuclei (nuclei with a smooth oval shape) and abnormal nuclei (nuclei with blebs, irregular shape, or multiple folds) was calculated by manual blind counting. At least 200 fibroblast nuclei were randomly selected for each cell line and examined in two independent experiments. Results are expressed graphically as the average percentage of the total nuclei counted.

lamin A = assay: Intramuscular MG132 in Lmna G609G/G609G mice, lamin A in gastrocnemius muscle; assay type: in vivo, mouse
Procedure: (A) Lamin A, progerin, lamin C and SRSF-1 specific bands, corresponding to DMSO-treated left muscle (−) and 1 μg/Kg MG132-treated right muscle (+), were quantified by ImageJ software and their expression levels were normalized to GAPDH values.
(§2) Knock-in mouse model (Lmna^G609G/G609G) carrying the c.1827C>T (p.Gly609Gly) mutation in the endogenous Lmna gene, corresponding to the human HGPS mutation c.1824C>T (p.Gly609Gly) have been described previously (31). MG132 (1 or 10 μg/Kg body weight) was injected under isoflurane anesthesia into the right gastrocnemius muscle of […] homozygous knock-in mice (Lmna^G609G/G609G) 3 times per week for 2 weeks. Contralateral muscle served as control (DMSO). MG132 was dissolved in dimethyl sulfoxide (DMSO) and then diluted in 100 μl sterile phosphate-buffered saline (PBS) for intramuscular injection. […] Animal experiments have been carried out in compliance with the European guidelines for the care and use of laboratory animals (EU directive 2010/63/EU) and in accordance with the recommendations provided by the guide for the care and use of the laboratory animals of the French national Institute for Health and Medical Research (INSERM) and the ethical committee of Aix-Marseille University.

[1] = Tolerability of intramuscular MG132 in Lmna G609G/G609G mice; assay type: in vivo, mouse; conditions: 1 or 10 μg/Kg intramuscular
Procedure: as §2

Compound: CC(C)C[C@@H](C=O)NC(=O)[C@H](CC(C)C)NC(=O)[C@H](CC(C)C)NC(=O)OCc1ccccc1 [MG132, Z-Leu-Leu-Leu-al] (Cbz-Leu-Leu-Leu-aldehyde)
- LC3B-II levels (LC3B-II): increased
- progerin mRNA expression (progerin mRNA): almost extinguished progerin mRNA expression
- SRSF-1 levels (SRSF-1): significant decrease of SRSF-1 levels
- lamin A transcript levels (lamin A mRNA): significant decrease of lamin A transcripts
- lamin C transcript levels (lamin C mRNA): much less pronounced decrease of lamin C transcript levels
- nuclear shape abnormalities (HGPS cell lines): improves nuclear shape abnormalities
- lamin A level in treated muscle (lamin A; 1 μg/Kg intramuscular, change not significant): small increase in lamin A
- lamin A level in treated muscle (lamin A; 10 μg/kg body weight intramuscular): remain constant or increase slightly
- apparent damage or stress responses [1]: Neither vehicle alone nor MG132 treatment produced any apparent damage or stress responses
